Legend:
[1] = tested on: amino acid response (AAR) pathway; test: eIF2α phosphorylation and ATF4 protein in T cells (immunoblot); assay type: cell-based, mouse
Experimental: Whole cell lysates were prepared 4 hours-post TCR activation and immunoblotting was performed with the indicated antibodies. ATF4 protein is indicated by arrowhead. NS—non-specific band.
FIG. 12E is an illustration depicting immunoblot analysis of purified CD4^+ CD25^− T cells activated through the TCR for the indicated times without exogenous cytokines in the presence of either 10 nM MAZ1310 or 10 nM HF as indicated. Whole cells lysates were prepared during the timecourse and immunoblotting was performed.
Cultures were further supplemented with either 10 nM MAZ1310 or 10 nM HF as indicated. Whole cell lysates were generated 4 hours after activation and immunoblotting was performed. Microarray data were generated from triplicate samples and all other data are representative of at least 2 similar experiments.
Western blotting: Whole cell lysates were generated from T cells activated for the indicated times. For STAT3 and Smad2/3 western blots cells were harvested, washed in PBS and lysed in 50 mM Tris, pH 7.4, 0.1% SDS, 1% Triton-×100, 140 mM NaCl, 1 mM EDTA, 1 mM EGTA supplemented with protease inhibitors tablets (Roche—Germany), 1 mM NaF and 1 mM Na3VO4. For eIF2α and ATF4 western blots, cells were harvested as above and lysed in 50 mM Tris, pH 7.4, 2% SDS, 20% glycerol and 2 mM EDTA supplemented with protease and phosphatase inhibitors as above. All lysates were cleared via centrifugation and 15-30 μg of protein was resolved by SDS-PAGE. Protein was transferred to nitrocellulose membranes, blocked and blotted using specific antibodies. Antibodies used for western blot analysis were anti-phospho-Smad2, anti-STAT3 (pY705), anti-STAT3, anti-eIF2α^pS51, anti-eIF2α, anti-GCN2^pT898, anti-GCN2 (all from cell signaling technology, Danvers, Mass.). Anti-ATF4/CREB2 and anti-β-actin were purchased from Santa Cruz biotechnology (Santa Cruz, Calif.). HRP-conjugated secondary antibodies were all purchased from Sigma, with the exception of HRP-conjugated anti-armenian hamster antibody (Jackson Immunoresearch—West Grove, Pa.).

[2] = tested on: splenocytes; test: In vivo activation of the AAR pathway in splenocytes of treated mice; design: species or system C57B/6 mice; settings: 2.5 μg HF i.p., 6 hours post injection
Experimental: FIG. 20A is a graph depicting splenocytes from control- and HF-treated mice. C57B/6 mice were injected i.p. with vehicle (DMSO) or 2.5 μg HF. Spleens were harvested 6 hours post injection, red blood cells were lysed and total splenocytes were counted. Data are presented as mean cell counts±SD from 2 mice per group.
FIG. 20C is a graph depicting eIF2α expression in control- and HF-treated mice. Splenocytes from mice injected with DMSO or HF as above were harvested 6 hours post injection. Red blood cells were lysed and immunoblotting was performed on whole cell extracts for phosphorylated or total eIF2α as indicated.
FIG. 20D is a graph depicting the results of quantitative real-time PCR (qPCR) experiments performed for AAR-associated gene expression (Asns, Gpt2, eIF4Ebp1) using cDNA generated from splenocytes of mice injected with DMSO or HF as above. Expression of AAR-associated genes were normalized to Hprt levels and data are presented as mean relative expression from duplicate samples±SD.

[3] = tested on: fibroblasts; test: Protein synthesis, proliferation and death of cultured fibroblasts; assay type: cell-based
[4] = tested on: dermal fibroblasts; test: Spreading and contractile activity of dermal fibroblasts on Type I collagen; assay type: cell-based, human
Experimental: Inhibitors of cellulite formation are also identified by observing the effect of the test compound on fibroblast behavior. In this assay, a control population of primary dermal fibroblasts are cultured in a matrix of Type I collagen, mimicking the interstitial matrix of the dermis and hypodermis, such that the fibroblasts attach to the substratum and spread, exerting contractile force on the surrounding interstitial matrix. In the test population, primary dermal fibroblasts are incubated on a matrix of Type I collagen in the presence of a test compound for a predetermined length of time, e.g., 24 hrs. The ability of the dermal fibroblasts to attach to the substratum and spread is then observed.
An assay is provided to test the effects of HF and other selective Th17 inhibitors on the behavior of cells likely to provide the basis for the structural features of cellulite—dermal fibroblasts and myofibroblasts. When human primary dermal fibroblasts are cultured in a matrix of Type I collagen, mimicking the interstitial matrix of the dermis and hypodermis, they attach to the substratum and spread, exerting contractile force on the surrounding interstitial matrix. […] The ability of the dermal fibroblasts to attach and spread when cultured in the presence of the Th17 inhibitor is detected.

[5] = tested on: human peripheral blood T cells; settings: cited from earlier work
[6] = tested on: fibrosis; settings: in vitro; cited from earlier work
[7] = tested on: radiation induced fibrosis; settings: IP, 1-5 μg/mouse; cited from earlier work
[8] = tested on: TSK mouse; settings: 1 μg HF/mouse IP daily; cited from earlier work
[9] = tested on: Xenopus feeding stage tadpoles; test: Toxicity in Xenopus feeding stage tadpoles; settings: 400 nM HF, treatment for 7 days

In the case of O=C(CC1NCCCC1O)Cn1cnc2cc(Br)c(Cl)cc2c1=O (racemic) [HF, 7-bromo-6-chloro-3-[3-(3-hydroxy-2-piperidinyl)-2-oxopropyl]-4(3H)-quinazolinone], the “time at which eIF2α phosphorylation reached maximum levels” value ([1]; 10 nM HF) is reported as at most 2 h, the “time until which ATF4 protein continued to accumulate” value ([1]; 10 nM HF) is reported as 4 h and the “eIF2α phosphorylation in resting naïve T cells and T cells in Th17, ThN, Th1, Th2 and iTreg conditions” value ([1]; 10 nM HF, 4 hours) is reported as “induced eIF2α phosphorylation”. For the same compound, the “induction of ATF4 expression by T cell state” value ([1]; 10 nM HF, 4 hours) was “in all differentiated T cells but not in naïve T cells”, the “HF concentration at which eIF2α phosphorylation plateaued” value ([1]; 4 hours-post TCR activation) was 5 to 10 nM and the “HF concentration inducing detectable eIF2α phosphorylation” value ([1]; 4 hours-post TCR activation) was 2.5 nM. For the same compound, the “HF concentration with highest ATF4 expression levels” value ([1]; 4 hours-post TCR activation) was 5 to 10 nM, the “HF concentration with reduced ATF4 expression” value ([1]; 4 hours-post TCR activation) was 20 to 40 nM and the “eIF2α phosphorylation and AAR-associated gene expression in splenocytes of treated mice” value [2] was “rapidly activates”. The “concentrations that inhibit protein synthesis and cell proliferation of fibroblasts in culture” value [3] was “over 80 nM”, the “doses that do not cause death of cultured fibroblasts” value ([3]; over a period of 5 days) was “up to 500 nM” and the “spreading and contractile activity of dermal fibroblasts” value [4] was “prevents the spreading and contractile activity”. The “NFkB activation and T-cell secretion of cytokines” value ([5]; 80 nM HF, crude preparation of primary T-cells) was “broadly suppress”, the IC50 ([5]; Lieba studies, read-out: 50% inhibition of cytokine secretion, NF-kB activation, p38 phosphorylation) was 0.02 to 0.04 µM and the “levels of cytokine secretion, NF-kB activation and p38 phosphorylation” value ([5]; anti-CD3 activated T cells) was “generally reduced levels”. The “concentrations at which HF acts as an inhibitor of fibrosis” value [6] was 1 to 200 nM, the radiation induced fibrosis [7] was “prevented radiation induced fibrosis” and the “toxic effect in mice” value [7] was “without evident toxic effect”. The normal skin thickness [8] was “did not reduce”, the “skin thickness of TSK mouse” value [8] was “reduced skin thickness of a TSK mouse to that of a normal mouse” and the “toxic effects in TSK model” value [8] was “no toxic effects”. For the same compound, the “toxic effects in tadpoles” value [9] was “does not have detectable toxic effects”.

Reference: patent publication US20090123389A1, “Methods for modulating Th17 cell development in the treatment and prevention of cellulite” (priority 2007, published 2009)
